Data published in patent US6989384B2, “Antipicornaviral compounds and compositions, their pharmaceutical uses, and materials for their synthesis” (Agouron Pharmaceuticals, Inc., priority 2000, dated 2006).
pEC50: −log10 of the molar value.

Tests used:
[1] = molecular target: T1, rhinovirus 3C protease from HRV serotype-14 (Human rhinovirus 14, UniProt P03303); assay: Inhibition of rhinovirus 3C protease activity (FRET assay), HRV-14; format: biochemical; settings: read-out: Protease Inhibition kobs/I
T1 construct: Recombinant rhinovirus 3C proteases; made in house
Method in brief: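 Recombinant 3C protease (50–100 nM) was assayed in 50 mM tris pH 7.6, 1 mM EDTA, 2% DMSO, with about 1 μM DABCYL-GRAVFQGPVG-EDANS FRET substrate. Cleavage was followed as the rise in fluorescence. kobs/[I] was derived from progress curves of enzyme-initiated reactions.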

[2] = molecular target: T2, rhinovirus 3C protease (HRV-2) (Human rhinovirus 2, UniProt P04936); assay: Inhibition of rhinovirus 3C protease activity (FRET assay), HRV-2; format: biochemical; settings: read-out: Protease Inhibition kobs/I
T2 construct: Recombinant rhinovirus 3C proteases; made in house
Description: Stock solutions (50 mM, in DMSO) of various compounds were prepared; dilutions were in the same solvent. Recombinant rhinovirus 3C proteases (see Birch et al., “Purification of recombinant human rhinovirus 14 3C protease expressed in Escherichia coli,” Protein Expr. Pur. 1995, 6(5), 609–618) from serotypes 14, 16, and 2 were prepared by the following standard chromatographic procedures: (1) ion exchange using Q Sepharose Fast Flow from Pharmacia; (2) affinity chromatography using Affi-Gel Blue from Biorad; and (3) sizing using Sephadex G-100 from Pharmacia. Each assay sample contained 2% DMSO, 50 mM tris pH 7.6, 1 mM EDTA, a test compound at the indicated concentration, approximately 1 μM substrate, and 50–100 nM protease. The kobs/I values were obtained from reactions initiated by addition of enzyme rather than substrate. RVP activity was measured in the fluorescence resonance energy transfer assay. The substrate was (N-terminal) DABCYL-(Gly-Arg-Ala-Val-Phe-Gln-Gly-Pro-Val-Gly)-EDANS. In the uncleaved peptide, the EDANS fluorescence was quenched by the proximal DABCYL group. When the peptide was cleaved, the quenching was relieved, and activity was measured as an increase in fluorescence signal. In the Table, unless otherwise indicated, all data are for rhinovirus 3C protease from HRV serotype-14 (produced from the infectious cDNA clone constructed by Dr. Robert Rueckert, Institute for Molecular Virology, University of Wisconsin, Madison, Wis.). The data in the column designated kobs/[I] were measured from progress curves in enzyme start experiments.

[3] = molecular target: T3, rhinovirus 3C protease (HRV-89) (Human rhinovirus A serotype 89, UniProt P07210); assay: Inhibition of rhinovirus 3C protease activity (FRET assay), HRV-89; format: biochemical, human rhinovirus 89; settings: HRV-89 3C protease; progress curves, enzyme start; read-out: Protease Inhibition kobs/I
T3 construct: Recombinant rhinovirus 3C proteases

[4] = molecular target: T4, rhinovirus 3C protease (HRV-16) (Human rhinovirus 16, UniProt Q82122); assay: Inhibition of rhinovirus 3C protease activity (FRET assay), HRV-16; format: biochemical; settings: HRV-16 3C protease; progress curves, enzyme start; read-out: Protease Inhibition kobs/I
T4 construct: Recombinant rhinovirus 3C proteases; made in house
Description: Stock solutions (50 mM, in DMSO) of various compounds were prepared; dilutions were in the same solvent. Recombinant rhinovirus 3C proteases (see Birch et al., “Purification of recombinant human rhinovirus 14 3C protease expressed in Escherichia coli,” Protein Expr. Pur. 1995, 6(5), 609–618) from serotypes 14, 16, and 2 were prepared by the following standard chromatographic procedures: (1) ion exchange using Q Sepharose Fast Flow from Pharmacia; (2) affinity chromatography using Affi-Gel Blue from Biorad; and (3) sizing using Sephadex G-100 from Pharmacia. Each assay sample contained 2% DMSO, 50 mM tris pH 7.6, 1 mM EDTA, a test compound at the indicated concentration, approximately 1 μM substrate, and 50–100 nM protease. The kobs/I values were obtained from reactions initiated by addition of enzyme rather than substrate. RVP activity was measured in the fluorescence resonance energy transfer assay. The substrate was (N-terminal) DABCYL-(Gly-Arg-Ala-Val-Phe-Gln-Gly-Pro-Val-Gly)-EDANS. In the uncleaved peptide, the EDANS fluorescence was quenched by the proximal DABCYL group. When the peptide was cleaved, the quenching was relieved, and activity was measured as an increase in fluorescence signal. […] The data in the column designated kobs/[I] were measured from progress curves in enzyme start experiments.

HRV-14 = assay: Antirhinoviral H1-HeLa cell culture assay (cell protection, XTT), HRV-14; format: cell-based, human rhinovirus; settings: Rhinovirus B, HRV14, H1-HeLa, 48 h, read-out: Cell Protection EC50
Description: (§1) In this cell protection assay, the ability of compounds to protect cells against HRV infection was measured by the XTT dye reduction method, which is described in Weislow et al., J. Natl. Cancer Inst. 1989, vol. 81, 577–586.
(§2) H1-HeLa cells were infected with HRV-14 at a multiplicity of infection (m.o.i.) of 0.13 (virus particles/cell) or mock-infected with medium only. Infected or mock-infected cells were resuspended at 8×10^5 cells per mL, and incubated with appropriate concentrations of the compounds to be tested. Two days later, XTT/PMS was added to test plates and the amount of formazan produced was quantified spectrophotometrically at 450/650 nm. The EC50 value was calculated as the concentration of compound that increased the percentage of formazan production in compound-treated, virus-infected cells to 50% of that produced by compound-free, mock-infected cells. The 50% cytotoxic dose (CC50) was calculated as the concentration of compound that decreased the percentage of formazan produced in compound-treated, mock-infected cells to 50% of that produced by compound-free, mock-infected cells.
(§3) All strains of human rhinovirus (HRV) for use in this assay were purchased from American Type Culture Collection (ATCC), except for HRV serotype-14 (produced from the infectious cDNA clone constructed by Dr. Robert Rueckert, Institute for Molecular Virology, University of Wisconsin, Madison, Wis.). HRV stocks were propagated and viral assays were performed in H1-HeLa cells (ATCC). Cells were grown in minimal essential medium with 10% fetal bovine serum, available from Life Technologies (Gaithersburg, Md.).
(§4) The compounds were tested against control compounds WIN 51711, WIN 52084, and WIN 54954 (obtained from Sterling-Winthrop Pharmaceuticals), Pirodavir (obtained from Janssen Pharmaceuticals), and Pleconaril (prepared according to the method described in Diana et al., J. Med. Chem 1995, vol. 38, 1355). Antiviral data obtained for the test compounds are shown in the Table, where all data are for HRV serotype-14 unless otherwise noted in parentheses.

HRV-1A = assay: Antirhinoviral H1-HeLa cell culture assay (cell protection, XTT), HRV-1A; format: cell-based, human rhinovirus; settings: Rhinovirus A, HRV1A, 48 h, H1-HeLa cells, two days
Description: as §1, §2, §3, §4

HRV-10 = assay: Antirhinoviral H1-HeLa cell culture assay (cell protection, XTT), HRV-10; format: cell-based; settings: Human rhinovirus sp., HRV10, 48 h, HRV-10, H1-HeLa cells, two days
Description: as §1, §2, §3, §4

HRV-2 = assay: Antirhinoviral H1-HeLa cell culture assay (cell protection, XTT), HRV-2; format: cell-based, human rhinovirus; settings: Rhinovirus A, HRV2, 48 h, HRV-2, H1-HeLa cells, two days
Description: as §1, §2, §3, §4

[5] = Cytotoxicity in mock-infected H1-HeLa cells (XTT); format: cell-based; settings: human, two days, read-out: Toxicity CC50
Description: as §1, §2, §3

T3 sequence (P07210 1522-1704): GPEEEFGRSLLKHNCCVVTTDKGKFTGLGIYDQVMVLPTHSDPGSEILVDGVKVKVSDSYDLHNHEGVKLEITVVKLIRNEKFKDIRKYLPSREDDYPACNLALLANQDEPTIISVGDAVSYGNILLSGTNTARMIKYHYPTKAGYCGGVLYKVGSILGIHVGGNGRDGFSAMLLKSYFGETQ
T2 sequence (P04936 1508-1690): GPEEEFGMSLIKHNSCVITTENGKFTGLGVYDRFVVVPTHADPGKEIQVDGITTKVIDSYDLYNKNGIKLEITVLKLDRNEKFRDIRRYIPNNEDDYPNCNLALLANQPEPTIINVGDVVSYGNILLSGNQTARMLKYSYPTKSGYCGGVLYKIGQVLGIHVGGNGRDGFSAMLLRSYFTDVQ
T4 sequence (Q82122 1511-1693): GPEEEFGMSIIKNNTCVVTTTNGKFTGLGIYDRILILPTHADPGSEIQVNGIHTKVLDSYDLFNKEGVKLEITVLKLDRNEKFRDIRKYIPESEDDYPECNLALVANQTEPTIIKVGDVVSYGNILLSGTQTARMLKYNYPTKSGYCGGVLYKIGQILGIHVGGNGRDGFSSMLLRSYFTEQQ
T1 sequence (P03303 1538-1719): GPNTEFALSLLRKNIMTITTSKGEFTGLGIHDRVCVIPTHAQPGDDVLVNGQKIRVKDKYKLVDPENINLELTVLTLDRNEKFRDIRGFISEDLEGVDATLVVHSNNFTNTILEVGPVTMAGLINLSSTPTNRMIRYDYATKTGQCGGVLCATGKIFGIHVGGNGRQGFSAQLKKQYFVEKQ

With `CCOC(=O)/C=C/[C@H](C[C@@H]1CCNC1=O)NC(=O)C1=Cc2cc(Cl)ccc2OC1` [Compound 44, 4S-[(6-Chloro-2H-chromene-3-carbonyl)-amino]-5-(2-oxo-pyrrolidin-3S-yl)-pent-2-enoic acid ethyl ester] the kinact/KI [1] was 19700 M⁻¹ s⁻¹, the kinact/KI [2] was 385 M⁻¹ s⁻¹ and the kinact/KI [3] was 800 M⁻¹ s⁻¹. For the same compound, the kinact/KI [4] was 2200 M⁻¹ s⁻¹, the pEC50 (HRV-14) was 6.80 and the pEC50 (HRV-1A) was 5.29. It also gave a pEC50 (HRV-10) of 6.34, a pEC50 (HRV-2) of 6.19 and a CC50 at 2 days [5] greater than 100000 nM.
